Earlier results in patent publication US11840582B2, “Synthesis method of cyclosporine derivatives” (Peking University Shenzhen Graduate School, priority 2021, dated 2023).
Non-standard residues stand in square brackets, D forms with d. Residues, ends and D or L forms follow the SMILES beside them. NMeThr(4R-Me,4-(CH2)6NHAc) = CN[C@H](C(=O)O)[C@H](O)[C@H](C)CCCCCCNC(C)=O; NMeL = CN[C@@H](CC(C)C)C(=O)O; NMeV = CN[C@H](C(=O)O)C(C)C; dNMeA = CN[C@H](C)C(=O)O; Abu = CC[C@H](N)C(=O)O

System: cyclophilin proteins (CyP), including cyclophilin protein A, cyclophilin protein B, cyclophilin protein H and cyclophilin protein G

IC50: 1 to 7 nM | potency relative to cyclosporine A inhibiting the activity of cyclophilin protein: ≤ 13 times
Compound: CC[C@@H]1NC(=O)[C@H]([C@H](O)[C@H](C)CCCCCCNC(C)=O)N(C)C(=O)[C@H](C(C)C)N(C)C(=O)[C@H](CC(C)C)N(C)C(=O)[C@H](CC(C)C)N(C)C(=O)[C@@H](C)NC(=O)[C@H](C)NC(=O)[C@H](CC(C)C)N(C)C(=O)[C@H](C(C)C)NC(=O)[C@H](CC(C)C)N(C)C(=O)[C@@H](C)N(C)C1=O [CRV431] (cyclo(A[dA][NMeL][NMeL][NMeV][NMeThr(4R-Me,4-(CH2)6NHAc)][Abu][dNMeA][NMeL]V[NMeL]))
